Assay [1] deals with Proteus mirabilis. Briefly: Antimicrobial activity against Proteus mirabilis TUM4660 by broth dilution method. In kind it is functional.
The test system of assay [2] is Escherichia coli. Briefly: Antimicrobial activity against Escherichia coli TUM4670 by broth dilution method. The format is functional. Background: Dilution methods test growth across graded concentrations, often in twofold steps.
Assay [3] relates to Escherichia coli. Briefly: Antimicrobial activity against Escherichia coli TUM4672 by broth dilution method.
In assay [4] the test system is Escherichia coli. Nature of the assay: Antimicrobial activity against Escherichia coli ML4909 by broth dilution method. In kind it is functional.
Assay [5] relates to Escherichia coli. Briefly: Antimicrobial activity against Escherichia coli ML4901 by broth dilution method. In kind it is functional.
For assay [6], the system named is Proteus mirabilis. Nature of the assay: Antimicrobial activity against Proteus mirabilis TUM4660 by broth dilution method in presence of beta-lactamase inhibitor clavulanic acid. The format is functional.
The test system of assay [7] is Escherichia coli. Nature of the assay: Antimicrobial activity against Escherichia coli TUM4670 by broth dilution method in presence of beta-lactamase inhibitor clavulanic acid.
Assay [8] deals with Escherichia coli. Nature of the assay: Antimicrobial activity against Escherichia coli TUM4672 by broth dilution method in presence of beta-lactamase inhibitor clavulanic acid.
For assay [9], the system named is Escherichia coli. Nature of the assay: Antimicrobial activity against Escherichia coli ML4909 by broth dilution method in presence of beta-lactamase inhibitor clavulanic acid. The format is functional.
In assay [10] the test system is Escherichia coli. Briefly: Antimicrobial activity against Escherichia coli ML4901 by broth dilution method in presence of beta-lactamase inhibitor clavulanic acid. The format is functional.
The subject of assay [11] is Proteus mirabilis. Briefly: Antimicrobial activity against Proteus mirabilis TUM4660 by disk diffusion method in presence of 300 ug 3-aminophenyl-boronic acid. In kind it is functional.
The test system of assay [12] is Proteus mirabilis. Nature of the assay: Antimicrobial activity against Proteus mirabilis TUM4660 by broth dilution method in presence of beta-lactamase inhibitor Tazobactam. The format is functional.
Assay [13] relates to Escherichia coli. Nature of the assay: Antimicrobial activity against Escherichia coli TUM4670 by broth dilution method in presence of beta-lactamase inhibitor Tazobactam. In kind it is functional.
The subject of assay [14] is Escherichia coli. Nature of the assay: Antimicrobial activity against Escherichia coli TUM4672 by broth dilution method in presence of beta-lactamase inhibitor Tazobactam. In kind it is functional.
The test system of assay [15] is Escherichia coli. Briefly: Antimicrobial activity against Escherichia coli ML4909 by broth dilution method in presence of beta-lactamase inhibitor Tazobactam. The format is functional.
Assay [16] has as its system Escherichia coli. Nature of the assay: Antimicrobial activity against Escherichia coli ML4901 by broth dilution method in presence of beta-lactamase inhibitor Tazobactam. In kind it is functional.

In brackets after ≈: the same amount, converted by molar mass.

For `CO/N=C(\C(=O)N[C@@H]1C(=O)N2C(C(=O)[O-])=C(C[N+]3(C)CCCC3)CS[C@H]12)c1csc(N)n1`, the minimal inhibitory concentration (MIC) (in general, the smallest concentration in the dilution series that meets the test's criterion for growth inhibition) was 2 µg/mL (≈ 4.16 µM) in assay [1], 1 µg/mL (≈ 2.08 µM) in assay [2], 2 µg/mL (≈ 4.16 µM) in assay [3] and ≤ 0.06 µg/mL in assay [4].
With `CC(C)(O/N=C(\C(=O)N[C@@H]1C(=O)N2C(C(=O)[O-])=C(C[n+]3ccccc3)CS[C@H]12)c1csc(N)n1)C(=O)O` [CEFTAZIDIME], the MIC in [1] was 16 µg/mL (≈ 29.3 µM); in assay [2], 128 µg/mL (≈ 234 µM); in [3] it was 128 µg/mL (≈ 234 µM); in assay [4] it was 0.25 µg/mL (≈ 0.457 µM); in assay [5], 0.25 µg/mL (≈ 0.457 µM); in assay [6], 16 µg/mL. Further, the MIC in [7] is 32 µg/mL; in assay [8], 64 µg/mL; in assay [9] it was 0.12 µg/mL; in assay [10], ≤ 0.06 µg/mL. Moreover, the “diameter of the inhibition zone (DIZ)” value in [11] was >5 mm.
As for `CCN1CCN(C(=O)N[C@@H](C(=O)N[C@@H]2C(=O)N3[C@@H]2SC(C)(C)[C@@H]3C(=O)O)c2ccccc2)C(=O)C1=O` [PIPERACILLIN], the MIC in [1] is > 128 µg/mL; in [2], > 128 µg/mL; in assay [3] it was > 128 µg/mL; in assay [4], 2 µg/mL (≈ 3.86 µM); in [5], 2 µg/mL (≈ 3.86 µM); in assay [12], 16 µg/mL. The minimum inhibitory concentration (MIC) in [13] was > 128 µg/mL; in assay [14] it was > 128 µg/mL; in assay [15], 2 µg/mL; in [16], 2 µg/mL.
On to GENTAMICIN, for which the minimum inhibitory concentration (MIC) in assay [1] turned out to be 1 µg/mL; in assay [2] it was 1 µg/mL; in [4] it was 2 µg/mL; in assay [5] it was 2 µg/mL.
For the compound `O=C(O)c1cn(C2CC2)c2cc(N3CCNCC3)c(F)cc2c1=O` [CIPROFLOXACIN], the minimal inhibitory concentration (MIC) in [1] was 0.12 µg/mL (≈ 0.362 µM); in assay [2], ≤ 0.06 µg/mL; in assay [3], ≤ 0.06 µg/mL; in assay [4], ≤ 0.06 µg/mL; in assay [5], ≤ 0.06 µg/mL.
Consider `COc1cc(Cc2cnc(N)nc2N)cc(OC)c1OC` [TRIMETHOPRIM], for which the MIC is 4 µg/mL (≈ 13.8 µM) in assay [1]; ≤ 0.06 µg/mL in [2]; ≤ 0.06 µg/mL in [3]; 0.12 µg/mL (≈ 0.413 µM) in [4]; ≤ 0.06 µg/mL in [5].
Regarding `CO[C@@]1(NC(=O)Cc2cccs2)C(=O)N2C(C(=O)O)=C(COC(N)=O)CS[C@@H]21` [CEFOXITIN], the minimum inhibitory concentration (MIC) was 128 µg/mL (≈ 299 µM) in [1]; 128 µg/mL (≈ 299 µM) in assay [2]; > 128 µg/mL in [3]; 4 µg/mL (≈ 9.36 µM) in [4]; 2 µg/mL (≈ 4.68 µM) in assay [5].
On to `C[C@@H](O)[C@H]1C(=O)N2C(C(=O)O)=C(SCCNC=N)C[C@H]12` [IMIPENEM ANHYDROUS], for which the MIC in assay [1] was 8 µg/mL (≈ 26.7 µM); in assay [2], 0.25 µg/mL (≈ 0.835 µM); in assay [3], 0.25 µg/mL (≈ 0.835 µM).
Regarding `CO/N=C(\C(=O)N[C@@H]1C(=O)N2C(C(=O)O)=C(COC(C)=O)CS[C@H]12)c1csc(N)n1` [CEFOTAXIME], the MIC in assay [1] is 8 µg/mL (≈ 17.6 µM); in assay [2] it was 16 µg/mL (≈ 35.1 µM); in [3] it was 32 µg/mL (≈ 70.3 µM); in assay [4] it was ≤ 0.06 µg/mL; in assay [5] it was ≤ 0.06 µg/mL; in assay [6], 16 µg/mL. Besides, the minimal inhibitory concentration (MIC) in assay [7] was 32 µg/mL; in assay [8], 64 µg/mL; in [9], ≤ 0.06 µg/mL; in [10], ≤ 0.06 µg/mL.
As for `CC1(C)S[C@@H]2[C@H](NC(=O)[C@H](N)c3ccc(O)cc3)C(=O)N2[C@H]1C(=O)O` [AMOXICILLIN], the MIC in assay [1] was > 128 µg/mL; in assay [2] it was > 128 µg/mL; in assay [3], > 128 µg/mL; in [4], 2 µg/mL (≈ 5.47 µM); in assay [5], 4 µg/mL (≈ 10.9 µM); in assay [6], > 128 µg/mL. Besides, the minimum inhibitory concentration (MIC) in assay [7] was > 128 µg/mL; in assay [8] it was > 128 µg/mL; in assay [9], 2 µg/mL; in assay [10], 4 µg/mL.

Source of the values: ChEMBL document CHEMBL1649318, “Chromosomally encoded blaCMY-2 located on a novel SXT/R391-related integrating conjugative element in a Proteus mirabilis clinical isolate” (2010).
